# Test results from patent publication US6362212B1, “Oxime derivative and bactericide containing the same as active ingredient” (Shionogi & Company, Ltd., priority 1994, dated 2002).
# Legend:
# Assay type in all cases: in vivo
# Puccinia coronata = assay: Controlling effect on Puccinia coronata by foliage application (pot experiment); conditions: foliage spray on oat (cv. PC-38) seedlings, infected area after 1 day moist chamber and 8 days greenhouse at 20° C.
# Experimental: The following Test Examples illustrate the effects of the fungicide of the present invention. (I. Controlling effects on various plant diseases by foliage application (pot experiment)) A test compound was dissolved in a small amount of N,N-dimethylformamide, and the solution was diluted to a given concentration with distilled water containing a spreader. Thus, a liquid sample to be tested was prepared. The liquid sample was sprayed to test plants, and 24 hours thereafter, pathogens were inoculated by the method described below. […] The seeds of oat (cv.: PC-38) were sown in plastic cups (each 9 cm in diameter), followed by cultivation for 2 to 3 weeks. The test compound in the form of a solution or suspension was sprayed to the seedlings. Spores of Puccinia coronata cultured on oat leaves were collected, diluted about 10-fold with talc, and sprayed to the test plants to inoculate the plants with the pathogen. After the inoculation, the plants were kept in a moist chamber at 20° C. for 1 day and then in a greenhouse at 20° C. for 8 days. The infected area on the leaf was observed, and the percent control was calculated.
# [1] = tested on: Pseudoperonospora cubensis; assay: Controlling effect on Pseudoperonospora cubensis by foliage application (pot experiment); conditions: foliage spray on cucumber (var. TSUKUBASHIROIBO) first leaves, lesion area after 10 days in moist chamber at 20° C.
# Experimental: The following Test Examples illustrate the effects of the fungicide of the present invention. (I. Controlling effects on various plant diseases by foliage application (pot experiment)) A test compound was dissolved in a small amount of N,N-dimethylformamide, and the solution was diluted to a given concentration with distilled water containing a spreader. Thus, a liquid sample to be tested was prepared. The liquid sample was sprayed to test plants, and 24 hours thereafter, pathogens were inoculated by the method described below. […] The seeds of cucumber (var.: […]) were sown in plastic cups (each 9 cm in diameter), followed by cultivation for 2 to 3 weeks. The test compound in the form of a solution or suspension was sprayed to the surface of their first leaves, and a zoosporangia suspension of Pseudoperonospora cubensis cultured on cucumber leaves was dropped on the above leaf surfaces to inoculate the test plants with the pathogen. After the inoculation, the plants were kept in a moist chamber at 20° C. for 10 days. Then, the area of the lesions around the inoculum were observed and the percent control was calculated.
# Sphaerotheca fuliginea = assay: Controlling effect on Sphaerotheca fuliginea by foliage application (pot experiment); conditions: foliage spray on cucumber (cv. TSUKUBASHIROIBO) first leaves, infected area after 10 days in greenhouse at 20° C.
# Procedure, shortened: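 First leaves of cucumber seedlings, 2-3 weeks old, were sprayed with compound (DMF solution diluted in water with spreader). They were inoculated 24 h later with a Sphaerotheca fuliginea conidia spray and kept 10 days at 20° C in a greenhouse. Percent control was calculated from infected leaf area.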
# Pyricularia oryzae = conditions: foliage spray on rice seedlings (cv. […]), number of lesions six days after the inoculation
# [2] = tested on: Erysiphe graminis f. sp. tritici; assay: Controlling effect on Erysiphe graminis f. sp. tritici by foliage application (pot experiment); conditions: foliage spray on wheat (cv. NORIN No. 61) seedlings, infected area after 10 days in greenhouse at 20° C.
# Procedure, shortened: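 Wheat seedlings (cv. NORIN No. 61, 2-3 weeks old) sprayed with compound in DMF diluted in water with spreader, then inoculated with conidia 24 hours later. Kept in greenhouse at 20 °C for 10 days; percent control calculated from infected leaf area.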
Compound,Controllng effect on Puccinia coronata by foliage application at 500 ppm (percent control) (Puccinia coronata),Controlling effect on Pseudoperonospora cubensis by foliage application at 500 ppm (percent control) [1],Controlling effect on Sphaerotheca fuliginea by foliage application at 500 ppm (percent control) (Sphaerotheca fuliginea),Controlling effect on PYricularia orYzae by foliage application at 500 ppm (percent control) (Pyricularia oryzae),Controlling effect on ErYsiphe graminis f. sp. tritici by foliage application at 500 ppm (percent control) [2],"pest or weed control at 500 ppm (Sphaerotheca fuliginea; Podosphaera fuliginea, in Cucumis sativus, foliar, 240 h, read-out: Controlling effect on Sphaerotheca fuliginea by foliage application at 500 ppm (percent control))","pest or weed control at 500 ppm ([2]; Blumeria graminis, foliar, 240 h, read-out: Controlling effect on ErYsiphe graminis f. sp. tritici by foliage application at 500 ppm (percent control))"
"CON=C(c1cc(C)no1)c1ccccc1COc1ccccc1C (single isomer, unassigned) [612A]",97 percent control,100 percent control,97 percent control,90 percent control,100 percent control,,
CON=C(c1cc(C)on1)c1ccccc1COc1cc(C)ccc1C (mixture of isomers) [Compound No. 436],90 percent control,,100 percent control,70 percent control,90 percent control,,
"CON=C(c1noc(C)n1)c1ccccc1COc1cc(C)ccc1C (single isomer, unassigned) [936A]",90 percent control,,100 percent control,97 percent control,97 percent control,,
CON=C(C1=NOCC1)c1ccccc1COc1cc(C)ccc1C (mixture of isomers) [compound 1236],97 percent control,,100 percent control,97 percent control,90 percent control,,
"CON=C(c1ccccc1COc1cc(C)ccc1C)c1nccn1C (single isomer, unassigned) [136A]",100 percent control,,100 percent control,90 percent control,90 percent control,,
CON=C(c1ccccc1COc1ccc(Cl)cc1)n1cncn1 [compound 267],90 percent control,,100 percent control,90 percent control,97 percent control,,
CON=C(c1cnco1)c1ccccc1COc1ccccc1 (mixture of isomers) [compound 1721],70 percent control,100 percent control,100 percent control,,90 percent control,,
CON=C(C1=NCCN1C)c1ccccc1COc1ccccc1C [compound 1112],70 percent control,,100 percent control,97 percent control,90 percent control,,
CON=C(C1=NCCO1)c1ccccc1COc1cc(C)ccc1C [compound 1328],70 percent control,,100 percent control,90 percent control,90 percent control,,
CON=C(c1nnco1)c1ccccc1COc1ccccc1C [Compound No. 712],100 percent control,,100 percent control,90 percent control,100 percent control,,
C=CCON=C(c1ccccc1COc1ccccc1)n1cncn1 [compound 278],90 percent control,,97 percent control,,90 percent control,,
"CON=C(c1cc(C)no1)c1ccccc1COc1cc(C)ccc1C (single isomer, unassigned) [636A, 2-(2,5-dimethylphenoxymethyl)phenyl 3-methylisoxazol-5-yl ketone O-methyloxime]",100 percent control,,,97 percent control,,97%,100%
CON=C(c1nnco1)c1ccccc1COc1ccccc1 [compound 701],97 percent control,100 percent control,100 percent control,,70 percent control,,
CON=C(C1=NCCN1)c1ccccc1COc1cc(C)ccc1C [compound 1478],70 percent control,,70 percent control,,90 percent control,,
"CON=C(c1cc(C)no1)c1ccccc1COc1cc(C)ccc1C (single isomer, unassigned) [636B, 2-(2,5-dimethylphenoxymethyl)phenyl 3-methylisoxazol-5-yl ketone O-methyloxime]",90 percent control,,100 percent control,70 percent control,100 percent control,,
CON=C(c1ccccc1Oc1ccccc1)c1nccn1C [compound 161],97 percent control,,100 percent control,,70 percent control,,
"CON=C(c1ccccc1COc1cc(C)ccc1C)c1nccn1C (single isomer, unassigned) [136B]",97 percent control,,100 percent control,70 percent control,70 percent control,,
CON=C(c1ccon1)c1ccccc1COc1ccccc1C (mixture of isomers) [compound 312],97 percent control,,100 percent control,70 percent control,100 percent control,,
